Reference: patent US20140335474A1, “FLOSS DEVICE, A METHOD OF FORMING THE FLOSS DEVICE AND A METHOD OF USING THE FLOSS DEVICE” (priority 2008, published 2014)

Tested on: E. Coli (strain DH5α)
Assay: Testing of antimicrobial RXPIX: bacterial viability by turbidity of LB Broth
Assay type: cell-based
Conditions: 15 minutes fluid exchange at room temperature, then 2 ml LB Broth, 20 hours at 37° C., three replicates
Method: For each sample three replicate experiments were preformed. Briefly, a drop of the bacterium E. Coli (strain DH5α) was mixed with a small amount of a medium (Luria-Bertani Broth, or LB Broth) and allowed to exchange fluid with the floss device 10, which is named “RXPIX” for identification purposes in the following tests, for 15 minutes. After this period of time, 2 ml of LB Broth was added to each test tube and the bacteria were allowed to grow for 20 hours at 37° C. Observing the turbidity of the broth at this time assessed bacterial viability. Bacterial viability was also assessed analytically by measuring the absorbance of visible light (600 nm).
B. On Day 2, 1 micro liter of E. Coli cells was transferred to each 12×75 mm round bottom test tube for antimicrobial testing. In addition, 5 micro liters of fresh LB Broth were added to each test tube to allow for fluid exchange. […]
D. After 20 hours of incubation, bacterial viability was assessed. […]
E. To further characterize bacterial growth, the absorbance of 600 nm visible light was used to analytically measure turbidity. The broth from each sample was measured with a spectrophotometer equipped with a lamp emitting visible light.

CCO [70% ethanol, ethanol]
bacterial growth (turbidity of the LB Broth): no bacterial growth
bacterial growth (turbidity of the LB Broth) (listed as 70% ethyl alcohol): not showing bacterial growth
